Measured values from ChEMBL document CHEMBL4840323, “Discovery of an Orally Bioavailable Small-Molecule Inhibitor for the β-Catenin/B-Cell Lymphoma 9 Protein-Protein Interaction” (J Med Chem, 2021).
The source made the active and inactive calls. The calls are words filed in the database; no cut-off is given here.

Key:
[1] = tested on: MDA-MB-468; assay: Antiproliferative activity against human MDA-MB-468 cells harboring empty pcDNA3.1 vector at 10 uM measured after 72 hrs by MTS assay; assay type: functional, cell-based
[2] = tested on: MDA-MB-231; assay: Antiproliferative activity against human MDA-MB-231 cells harboring beta-catenin pcDNA3.1 vector at 20 uM measured after 72 hrs by MTS assay; assay type: functional, cell-based
[3] = tested on: MDA-MB-468; assay: Induction of apoptosis in human MDA-MB-468 cells assessed as early apoptotic cells at 10 uM measured after 72 hrs by annexinV-FITC/propidium iodide staining based flow cytometry (reference value: 28.9 %); assay type: functional
[4] = tested on: MDA-MB-468; assay: Induction of apoptosis in human MDA-MB-468 cells assessed as late apoptotic cells at 10 uM measured after 72 hrs by annexinV-FITC/propidium iodide staining based flow cytometry (reference value: 13.9 %); assay type: functional
[5] = tested on: MDA-MB-468; assay: Induction of apoptosis in human MDA-MB-468 cells assessed as early apoptotic cells at 20 uM measured after 72 hrs by annexinV-FITC/propidium iodide staining based flow cytometry (reference value: 28.9 %); assay type: functional
[6] = tested on: MCF-10A; assay: Induction of apoptosis in human MCF-10A cells assessed as early apoptotic cells at 10 uM measured after 72 hrs by annexinV-FITC/propidium iodide staining based flow cytometry (reference value: 28.9 %); assay type: cell-based
[7] = Solubility of the compound in EtOH/saline (5/95) at 2 mg/ml; assay type: physicochemical; settings: buffer
[8] = Solubility of the compound in DMSO/Tween-80/H2O (10/10/80) at 2 mg/ml; assay type: physicochemical
[9] = AUC in C57BL/6 mouse at 1 mg/kg, iv measured after 5 mins by LC-MS/MS analysis; assay type: ADME, organism-based; set-up: route intravenous, dose 1 mg/kg, time 5 min; settings: in vivo
[10] = Volume of distribution in C57BL/6 mouse at 1 mg/kg, iv measured after 5 mins by LC-MS/MS analysis; assay type: ADME, organism-based; settings: in vivo
[11] = Half life in C57BL/6 mouse at 20 mg/kg, po via gavage measured up to 24 hrs by LC-MS/MS analysis; assay type: ADME, organism-based; settings: in vivo
[12] = tested on: 4013; assay: Antitumor activity against patient-derived 4013 cells orthotopically xenografted in SCID-Beige mouse assessed as reduction in tumor weight at 90 mg/kg, po via gavage for 5 days; assay type: functional, organism-based; settings: Homo sapiens, time 5.0 day
[13] = Toxicity in SCID-Beige mouse orthotopically xenografted with patient-derived 4013 cells at 90 mg/kg, po via gavage for 5 days; assay type: organism-based; settings: in vivo, 120 h, time 5 day
[14] = species on record: Mus musculus; settings: dose 90.0 mg/kg, time 5.0 day
[15] = species on record: Mus musculus; settings: dose 90.0 mg/kg, time 5.0 day; remark: listed apart in the source
[16] = species on record: Mus musculus; settings: dose 90.0 mg/kg, time 5.0 day; remark: listed apart in the source
[17] = species on record: Mus musculus; settings: dose 90.0 mg/kg, time 5.0 day; remark: listed apart in the source
[18] = species on record: Mus musculus; settings: dose 90.0 mg/kg, time 5.0 day; remark: listed apart in the source
[19] = species on record: Mus musculus; settings: dose 90.0 mg/kg, time 5.0 day; remark: listed apart in the source
[20] = tested on: MDA-MB-231; assay: cells; settings: Homo sapiens, MDA-MB-231, 72 h
Description: Antiproliferative activity against human MDA-MB-231 cells assessed as cell growth inhibition measured after 72 hrs by MTS assay

[21] = tested on: MDA-MB-468; assay: cells; settings: Homo sapiens, MDA-MB-468, 72 h
Description: Antiproliferative activity against human MDA-MB-468 cells assessed as cell growth inhibition measured after 72 hrs by MTS assay

[22] = tested on: SW480; assay: cells; settings: Homo sapiens, SW480, 72 h
Description: Antiproliferative activity against human SW480 cells assessed as cell growth inhibition measured after 72 hrs by MTS assay

[23] = tested on: MDA-MB-231; assay: Downregulation of HPRT mRNA expression in Wnt3a stimulated human MDA-MB-231 cells at 10 to 40 uM measured after 24 hrs by qRT-PCR analysis; settings: dose 10-40 µM

solubility [7]: Soluble
solubility [8]: Soluble
AUC [9]: 0.71 µM·h
Vd [10]: 8 L/kg
t1/2 [11]: 3.07 h
IC50 [20]: 28 µM
IC50 [21]: 9.6 µM
IC50 [22]: 24 µM
Compound: CC(C)(Oc1cccc(N2CCC[C@@H](C(=O)N(Cc3ccc(-c4cn[nH]c4)cc3)C3CC3)C2)c1)C(=O)N1CCNCC1.Cl
Activity [1]: Active
Activity [2]: inactive
Activity [3]: 17.5%
Activity [4]: 17.6%
Activity [5]: 34.6%
Activity [6]: 1.9%
Activity [12]: inactive
Activity [13]: Toxic
inhibition [14]: Active
inhibition [15]: Active
inhibition [16]: Active
inhibition [17]: Active
inhibition [18]: Active
inhibition [19]: Active
Activity [23]: inactive
